Measured values as given in patent US20080241281A1, “Compositions & methods for activation and inhibition of Staphylococcus aureus biofilm development” (priority 2007, published 2008).

Key:
sweet taste = conditions: cited from earlier work
S. aureus = S. aureus growth (OD600) and cell viability on agar plates; format: cell-based, Staphylococcus aureus; conditions: growth in TSB with or without substance
Description: (§1) At different time points, cells were collected and assayed for biofilm growth. Unbound cells were aspirated and saved for measuring the growth at OD600 and cell viability on agar plates. Loosely bound cells were removed by washing with phosphate buffer saline (PBS) twice and adherent biofilm cells were stained with 1% crystal violet (CV) stain. After extensive washing, stained cells were air dried, solubilized in dimethylsulfoxide (DMSO) and lysates (100 μl) were measured by a plate reader at OD590.

[1] = test system: several cell lines (human)
[2] = test system: poly N-acetylglucosamine (PNAG); assay: PNAG western blot of S. aureus biofilm cells (anti-PNAG rabbit polyclonal antibody); format: cell-based, Staphylococcus aureus; conditions: for PNAG synthesis in the presence of activator: LBBI-1 and LBBA-1 incubated together during biofilm growth
[3] = test system: S. aureus (NCTC-8325-4) biofilm; assay: S. aureus biofilm assay (microtiter wells, crystal violet stain, OD590); format: cell-based, Staphylococcus aureus
Description: In the S. aureus biofilm assay, polystyrene microtiter wells and glass tubes well known in the art were used to develop biofilm in vitro. Fractions dissolved in water were added to a sterile tryptic soy broth (TSB, Difco, Detroit) medium at a final concentration between 0.001-0.01% (w/v). Biofilm was developed and measured according to methods well known in the art. Briefly, a single colony of S. aureus (NCTC-8325-4) (or a clinical isolate) grown on blood agar plate was inoculated into the TSB liquid medium and grown in a shaking water bath at 37° C. until it reached an optical density (OD600) of 0.6-0.8. An aliquot was further diluted in TSB to an OD of 0.05 and 0.1 ml was dispensed into sterile microtiter wells. Solubilized SSF were added to the wells (1 μl/ml from 0.1% of filter sterile stock in water). Cells without SSF served as a control. The microtiter plate was incubated at 37° C. with gentle shaking for up to 16 hours.
as §1

rat chorda tympani nerve = conditions: glucose, sucrose, glycine and saccharine; known in the art; cited from earlier work

## gurmarin [LBBI-1]
Sweet taste
  sweet taste suppression in humans: no apparent effect
S. aureus
  S. aureus cell growth and viability: did not affect the growth of S. aureus
[1]
  toxicity to cell lines: non-toxic
[2]
  PNAG synthesis in the presence of activator: almost abolished
[2]; listed as biofilm inhibitor
  PNAG synthesis in the presence of activator: suppresses the production of PNAG
[2]; western blot, S. aureus biofilm
  PNAG production: significantly less PNAG production
[3]; 2 μg/ml concentration, microtiter biofilm assay
  biofilm inhibitory property: confirmed
[3]; FIG. 3B
  S. aureus biofilm growth: prevents S. aureus biofilm growth
[3]; in the presence of LBBA-1
  biofilm production in the presence of LBBA-1: can inhibit biofilm production
Rat chorda tympani nerve
  response of the rat chorda tympani nerve to sweet-taste stimuli: suppress the response
